Laboratory results: patent US8513202B2, “Crystalline form of 1-(β-D-glucopyranosyl)-4-methyl-3-[5-(4-fluorophenyl)-2-thienylmethyl]benzene hemihydrate” (Mitsubishi Tanabe Pharma Corporation, priority 2006, dated 2013)

Test: stability of the crystalline form compared with the amorphous form
Type: physicochemical
Conditions: compared with the amorphous form of the compound of formula (I); test conditions not given

stability: more stable than the amorphous form
SMILES: Cc1ccc([C@@H]2O[C@H](CO)[C@@H](O)[C@H](O)[C@H]2O)cc1Cc1ccc(-c2ccc(F)cc2)s1 [1-(β-D-glucopyranosyl)-4-methyl-3-[5-(4-fluorophenyl)-2-thienylmethyl]benzene hemihydrate]
